Data set [1] deals with T1, (Na^+ +K^+)ATPase (Canis lupus familiaris, UniProt P50997).
T1 construct: (Na^+ +K^+)ATPase was purified from the outer medulla of dog kidney; from tissue; host or cells: dog kidney outer medulla, purified membrane enzyme
As to the kind of experiment: Competition for ^3 H-ouabain binding to purified (Na^+ +K^+)ATPase. Also noted: species or system dog. The conditions noted are these: competition for ^3 H-ouabain binding. The method, then:
(§1) More specifically, (Na^+ +K^+)ATPase was purified from the outer medulla of dog kidney using the angle rotor procedure (Jorgensen, P.L., Biochim. Biophys. Acta, 356:36-52 (1974)) and stored frozen at -60° C. at 1.0 mg/ml in 25 mM imidazole-HCl (pH 7.5) and 1.0 mM EDTA, in small aliquots. (Na^+ +K^+)ATPase activity was determined at 37° C. from rate measurements in 1.0 ml of coupled optical assay mixture comprising 20 mM KCl, 100 mM NaCl, 4.5 mM MgSO4, 5.0 mM EGTA, 3.0 mM ATP-Na2, 1.2 mM phosphoenol-pyruvate-tricyclohexylammonium, 0.3 mM NADH, 100 mM TES-Tris (ph 7.4), 5.0 units of lactate dehydrogenase, and 5.0 units of pyruvate kinase (Hamlyn, J.M. et al, Nature, 300:650-652 (1982)). (Na^+ +K^+)ATPase activity was 99% ouabain-inhibitable with activities of 10-18 μmol/min/mg of membrane protein. Maximally effective concentrations of digitalis-like activity had no effect on the enzymatic components of the coupled optical assay as determined by inspection of rates in response to addition of 20-50 μM ADP. The maximal capacity of the coupled optical assay was at least 500-2000 fold greater than the typical maximal hydrolytic rate of the (Na^+ +K^+)ATPase and was not rate limiting under any assay condition described herein.
Competition for ^3 H-ouabain (Amersham Corp. or DuPont-New England Nuclear) binding was carried out in 670 μl of binding buffer comprising, in final concentrations, 10 mM TES-Tris (pH 7.4), 0.5 mM EDTA, 5.0 mM MgCl2 and 5.0 mM Na2 HPO4 (hereinafter "binding buffer") and 50 nM ouabain containing ^3 H-ouabain tracer, and including the unknown sample. Binding was initiated by addition of 0.1-2 μg of purified (Na^+ +K^+)ATPase and the reaction performed for 2 hr at 37° C. […] Trapped ^3 H-ouabain was determined by scintillation counting, following 12 hr of soaking the filters in 4.0 ml of Beckman Ready Protein ™ scintillation cocktail (Beckman, Palo Alto, Calif.). […] All binding data were corrected for quench, and specific binding was expressed as pmol/mg of enzyme protein. […]

For data set [2], the target named is T1, (Na^+ +K^+)ATPase. As to the kind of experiment: Inhibition of (Na^+ +K^+)ATPase activity (coupled optical assay). The conditions noted are these: inhibition of (Na^+ +K^+)ATPase activity. The data set is classed as biochemical, dog. The method, then: as §1
The inhibition of (Na^+ +K^+)ATPase was carried out as described above.

Data set [3] relates to antibodies having binding specificity for ouabain. As to the kind of experiment: Competition ELISA for binding to antibodies having binding specificity for ouabain. Also noted: species or system rabbit. The method, then: The competition for binding to antibodies having binding specificity for ouabain was carried out by employing polyclonal antisera having titers >10,000 generated against ouabain in rabbits as described in Example 2 below. […] A competition ELISA was carried out as follows:
Microtiter plates were coated with 50 μl of a 1.0 ng/ml solution of Conjugate 4. Following washes with wash buffer comprising 0.9% (w/v) NaCl and 0.5% (v/v) Tween 20 (hereinafter "wash buffer"), residual sites were blocked with buffer comprising 136 mM NaCl, 1.46 mM KH2 PO4, 0.8 mM Na2 HPO4, 0.028 mM thimerosal, 0.5% (v/v) Tween 20, and 1.0% (w/v) BSA (pH 7.4). Known amounts of free ouabain or unknown samples were introduced followed by the addition of ouabain antisera at an overall dilution of 1:2×10^6. Incubations at 23° C. for 1 hr were terminated by repeated washing with wash buffer. Subsequently, a second incubation at […] for 1hr was performed with a 1:10^3 dilution of goat anti-rabbit IgG-peroxidase conjugate (Boehringer Mannheim, Indianapolis, Ind.). Following extensive washing with wash buffer, equal parts of 3, 3', 5, 5'-tetramethylbenzindine and hydrogen peroxide (Kirkegaard and Perry, Gaitheresburg, Md.) were added and incubated at 23° C. for 15 min. Color development was terminated by addition of 1.0 M H3 PO4 and read at 450 nm with a plate reader. […] Each data point is the mean ± S.E.M. All lines were fitted by nonlinear regression to a sigmoidal function.

In data set [4] the test system is left atria from guinea pigs. As to the kind of experiment: Inotropic properties in left atria from guinea pigs. Also noted: species or system guinea pig. The procedure: Atria were incubated at 37° C. in phosphate buffered saline comprising 130 mM NaCl, 5.4 mM KCl, 1.8 mM MgCl2, 0.4 mM NaH2 PO4, 19 mM NaHCO3 and 5.4 g of glucose (pH 7.3-7.4), and gassed with 95% O2 /5% CO2. Tissues were stimulated at 1 Hz with twice threshold square pulses (0.8 to 1.0 V) of 0.7 to 1.2 msec duration. Resting tension was optimized for maximum isometric force generation. Control records were obtained once the phasic force was stabilized. […] For comparison, 200 nM plant ouabain evoked an inotropic response of 311±41% (N=4 experiments) which returned to normal with a half-time of approximately 5 min upon washout.

Data set [5] deals with catechol-o-methyl transferase (COMT). As to the kind of experiment: Substrate for catechol-o-methyl transferase (COMT). In kind it is in vitro ADME. The following applies: EDLF described in the present invention.
Data set [6] deals with (Na^+ +K^+)ATPase. The conditions noted are these: type II-phosphorylating conditions; cited from earlier work.
The conditions of data set [7]: 6.0 N HCl at 110° C.; cited from earlier work.
In a further data set the test system is digoxin antibodies. The conditions noted are these: cited from earlier work.

For orientation: Hill coefficient means the slope factor of the fitted curve.

For `CC1OC(OC2CC(O)C3(CO)C4C(O)CC5(C)C(C6=CC(=O)OC6)CCC5(O)C4CCC3(O)C2)C(O)C(O)C1O` (centres unmarked) [human ouabain], the Hill coefficient is on record as -0.97 at (Na^+ +K^+)ATPase [1], -1.28 at (Na^+ +K^+)ATPase [2] and -0.65 in data set [3] (competition ELISA). For the same molecule, the Kd was 7.7 nM on (Na^+ +K^+)ATPase [1] (read-out: calculated apparent Kd value, 50 nM ouabain, 2 hr at 37° C.); 13.9 nM at (Na^+ +K^+)ATPase [2] (read-out: calculated apparent Kd value, 37° C.); 1.6 nM in data set [3] (competition ELISA, antisera 1:2×10^6, read-out: calculated apparent Kd value). The “cross-reaction with antibodies having binding specificity for ouabain” value in data set [3] (within experimental error) was found to be 100%. In addition, in data set [4] (85 nM), the “time to plateau of increase in peak force” value worked out at 34 min. In data set [4] (Cavia porcellus, read-out: developed force above the control), the activation at 0.17 µM was determined as 294 ± 28%. Further, the “apparent half-time for washout of the inotropic response” value in data set [4] (upon washout) was “approximately 5 min”. Also, in data set [5], the “substrate for COMT” value is listed as “not a substrate for COMT”. The “affinity higher than that of ouabain” value in the data set on (Na^+ +K^+)ATPase [6] is given as 12-25 fold. Moreover, the “rate of loss of inhibitory activity compared with ouabain” value in data set [7] was “significantly greater”. Further, in the data set on digoxin antibodies, the “cross-reaction with digoxin antibodies” value is given as “does not cross-react”.

(Values after patent publication US5164296A, “Assay methods involving ouabain” (priority 1990, dated 1992).)
